{"source": "patent US20260041653A1", "about": "“AN HDAC INHIBITOR FOR TREATING CANCER WITH A MODIFIED STK11 ACTIVITY OR EXPRESSION” (Tango Therapeutics, Inc., priority 2022, published 2026)", "key": {"HDAC10": {"target": "T1, HDAC10 (Homo sapiens, UniProt Q969S8)", "T1 construct": "expressed in transfected cells", "T1 sequence (Q969S8 whole entry)": "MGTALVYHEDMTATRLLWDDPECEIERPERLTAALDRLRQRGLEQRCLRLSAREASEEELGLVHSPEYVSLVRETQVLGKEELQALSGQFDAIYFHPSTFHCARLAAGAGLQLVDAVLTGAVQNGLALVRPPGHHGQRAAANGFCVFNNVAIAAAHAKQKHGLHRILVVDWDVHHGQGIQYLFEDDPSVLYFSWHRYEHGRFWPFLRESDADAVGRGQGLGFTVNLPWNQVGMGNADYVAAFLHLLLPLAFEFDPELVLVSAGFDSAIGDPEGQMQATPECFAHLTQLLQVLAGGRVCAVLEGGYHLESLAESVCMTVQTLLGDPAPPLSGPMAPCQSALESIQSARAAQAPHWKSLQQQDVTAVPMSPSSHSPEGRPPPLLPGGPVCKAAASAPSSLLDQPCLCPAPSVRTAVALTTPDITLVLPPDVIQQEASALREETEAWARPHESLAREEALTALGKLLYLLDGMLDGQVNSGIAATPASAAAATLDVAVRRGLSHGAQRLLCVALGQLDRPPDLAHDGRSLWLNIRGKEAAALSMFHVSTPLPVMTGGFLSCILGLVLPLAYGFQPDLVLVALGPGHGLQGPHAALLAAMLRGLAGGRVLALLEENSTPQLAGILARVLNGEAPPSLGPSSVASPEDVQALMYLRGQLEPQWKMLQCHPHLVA", "assay": "Cellular NanoBRET assay, HDAC10", "format": "cell-based"}, "[1]": {"assay": "Caverage in mice with STK11-deleted MC38 tumors", "format": "in vivo, mouse", "conditions": "doses used in FIG. 12B and 12C"}}, "note": "Marks after values point to notes of the source that are not given here.", "data": [{"smiles": "Nc1cc(F)ccc1NC(=O)c1ccc(CNC(=O)/C=C/c2cccnc2)cc1", "note": "[Chidamide, reference compound]", "values": [{"measurement": "IC50", "setting": "HDAC10", "result": "> 30", "unit": "µM"}]}, {"smiles": "O=C(CCCCCCC(=O)Nc1ccccc1)NO", "note": "[Vorinostat, reference compound]", "values": [{"measurement": "Cavg, u", "setting": "[1]", "result": "0.132* uM"}]}]}
